The supplement of paper PMC13380429

How the values were obtained:
Conditions in all cases: 72 h
Caco-2 [1] = assay: cell viability relative to DMSO; higher = less toxic
Calu-3 [2] = assay: as above
HepG2 [3] = assay: as above
U2OS [4] = assay: as above
Vero E6 [5] = assay: as above
Calu-3 [6] = assay: relative viability EC50 (midpoint between 100% and the lowest measured viability); higher = less toxic
HepG2 [7] = assay: as above
U2OS [8] = assay: as above
Caco-2 [9] = assay: drug sensitivity score (DSS) for viability; higher = more toxic; extreme values may be limits of the assay
Calu-3 [10] = assay: as above
HepG2 [11] = assay: as above
U2OS [12] = assay: as above
Vero E6 [13] = assay: as above
Caco-2 [14] = assay: relative viability EC50 (midpoint between 100% and the lowest measured viability); higher = less toxic
Vero E6 [15] = assay: as above

Row | SMILES | cell viability (Caco-2 [1]; 1 nM) | cell viability (Caco-2 [1]; 10 nM) | cell viability (Caco-2 [1]; 100 nM) | cell viability (Caco-2 [1]; 1000 nM) | cell viability (Caco-2 [1]; 10000 nM) | cell viability (Calu-3 [2]; 1 nM) | cell viability (Calu-3 [2]; 10 nM) | cell viability (Calu-3 [2]; 100 nM) | cell viability (Calu-3 [2]; 1000 nM) | cell viability (Calu-3 [2]; 10000 nM) | cell viability (HepG2 [3]; 1 nM) | cell viability (HepG2 [3]; 10 nM) | cell viability (HepG2 [3]; 100 nM) | cell viability (HepG2 [3]; 1000 nM) | cell viability (HepG2 [3]; 10000 nM) | cell viability (U2OS [4]; 1 nM) | cell viability (U2OS [4]; 10 nM) | cell viability (U2OS [4]; 100 nM) | cell viability (U2OS [4]; 1000 nM) | cell viability (U2OS [4]; 10000 nM) | cell viability (Vero E6 [5]; 1 nM) | cell viability (Vero E6 [5]; 10 nM) | cell viability (Vero E6 [5]; 100 nM) | cell viability (Vero E6 [5]; 1000 nM) | cell viability (Vero E6 [5]; 10000 nM) | relative viability EC50 (Calu-3 [6]) | relative viability EC50 (HepG2 [7]) | relative viability EC50 (U2OS [8]) | drug sensitivity score (Caco-2 [9]) | drug sensitivity score (Calu-3 [10]) | drug sensitivity score (HepG2 [11]) | drug sensitivity score (U2OS [12]) | drug sensitivity score (Vero E6 [13]) | relative viability EC50 (Caco-2 [14]) | relative viability EC50 (Vero E6 [15])
1 | FC(F)(F)Oc1ccc2nc(-c3ccc(OCCOCCOc4ccc(-c5nc6ccc(OC(F)(F)F)cc6[nH]5)nc4)cn3)[nH]c2c1 [AI-10-49] | 95.2% | 95.4% | 90.9% | 82% | 56.7% | 109% | 95.7% | 98.2% | 98.3% | 93.3% | 94.7% | 93.6% | 103% | 74.6% | 18.7% | 98.5% | 98.6% | 101% | 90.5% | 80.7% | 102% | 97% | 93.3% | 72.8% | 56.2% | > 10 µM | 1.37 µM | > 10 µM | 4.2 | 0 | 8.2 | 1.5 | 5.6 |  | 
2 | N#CCNC(=O)c1ccc(-c2ccnc(Nc3ccc(N4CCOCC4)cc3)n2)cc1 [cyt387] | 99.5% | 103% | 101% | 103% | 61.8% |  |  |  |  |  | 109% | 105% | 101% | 88.7% | 21.6% | 99.9% | 107% | 99.4% | 95.6% | 36.6% | 102% | 100% | 96.6% | 94.7% | 52.5% |  | 2.02 µM | 2.6 µM | 1.6 |  | 6.2 | 4.1 | 3.4 |  | 
3 | Cc1cc(C2CCCCC2)n(O)c(=O)c1 [ciclopirox] | 99.9% | 90.1% | 96% | 77% | 38.7% | 108% | 109% | 94.3% | 95.7% | 44.8% | 91.8% | 96.4% | 95.9% | 85.9% | 27.2% | 105% | 95.2% | 101% | 87.9% | 52.1% | 94.6% | 100% | 90.1% | 89.6% | 63.4% | 2.52 µM | 1.76 µM |  | 6.1 | 3.6 | 6.3 | 4.4 | 2.7 | 1.31 µM | 
4 | C[C@](O)(COc1ccc(C#N)cc1)C(=O)Nc1ccc(C#N)c(C(F)(F)F)c1 [ostarine] |  |  |  |  |  | 109% | 98.9% | 99.4% | 95.9% | 97.9% | 107% | 107% | 103% | 109% | 92.8% |  |  |  |  |  |  |  |  |  |  | > 10 µM | > 10 µM |  |  | 0 | 0 |  |  |  | 
5 | CCN(CC)S(=O)(=O)c1ccc(C(=O)O)cc1 [etebenecid] | 99.7% | 110% | 107% | 92.5% | 108% | 110% | 93.9% | 106% | 95.2% | 111% | 109% | 110% | 98.4% | 112% | 101% |  |  |  |  |  |  |  |  |  |  | > 10 µM | > 10 µM |  | 0 | 0 | 0 |  |  | > 10 µM | 
6 | Cc1ncc(C)n2nc([C@@H]3C[C@H]3c3nc4c5cccnc5ccn4c3C)nc12 [PDE10-IN-1] |  |  |  |  |  | 106% | 98% | 105% | 114% | 117% | 98.7% | 105% | 96.1% | 115% | 98.1% | 98.6% | 95.5% | 100% | 95.9% | 97.9% | 93.5% | 98.2% | 99.6% | 99.3% | 105% | > 10 µM | > 10 µM | > 10 µM |  | 0 | 0 | 0 | 0 |  | > 10 µM
7 | C#CC[C@H](c1nc2cc(Cl)ccc2c(=O)n1Nc1ccccc1)N(CCCN)C(=O)c1cccc(Cl)c1F [ARQ-621] | 101% | 96.6% | 93.6% | 81.7% | 73% | 105% | 101% | 104% | 86.7% | 78% | 93.7% | 100% | 94.5% | 62.2% | 26.6% | 103% | 98.9% | 101% | 93.4% | 42.3% | 102% | 100% | 96.2% | 101% | 54.9% | > 10 µM | 0.929 µM | 2.23 µM | 3.1 | 2.1 | 8.5 | 4.2 | 2.3 |  | 
8 | c1ccc(-c2oc3ncnc(NC[C@@H]4CCCO4)c3c2-c2ccccc2)cc1 [AIM-100] | 115% | 92.6% | 96.6% | 104% | 71.3% | 106% | 92.2% | 96.6% | 97.7% | 74.7% | 83.4% | 98.6% | 99.8% | 97.4% | 95.6% | 103% | 102% | 105% | 101% | 95.5% | 90.2% | 98.6% | 96.6% | 87.2% | 95.9% |  | > 10 µM | > 10 µM | 1 | 1.3 | 0 | 0 | 0 |  | > 10 µM
9 | Cc1cc(C)c(CNC(=O)c2cc(-c3ccc(CN4CCOCC4)cc3)cc3c2cnn3C2CCCC2)c(=O)[nH]1 | 102% | 94.2% | 96.4% | 91.1% | 92% | 98% | 96.9% | 104% | 92% | 96.3% | 108% | 102% | 100% | 97.3% | 85.3% | 99% | 94.5% | 101% | 94.4% | 98.7% |  |  |  |  |  | > 10 µM | > 10 µM | > 10 µM | 0 | 0 | 0.5 | 0 |  | > 10 µM | 
10 | Cn1c(Nc2ccc(C(F)(F)F)cc2)nc2cc(Oc3ccnc(-c4ncc(C(F)(F)F)[nH]4)c3)ccc21 [RAF265] | 100% | 98.3% | 81.8% | 66.3% | 28.8% | 98% | 91.2% | 94% | 70.9% | 62.2% | 92.1% | 94.7% | 80% | 44.5% | 13.2% | 94.9% | 102% | 95.3% | 87.3% | 46.5% | 102% | 99.7% | 99.8% | 77.9% | 51.6% |  | 0.435 µM | 1.59 µM | 8.8 | 5.6 | 13.1 | 4.9 | 5.4 | 0.721 µM | 
11 | Cc1ccccc1C(=O)Nc1ccc(C(=O)N2CCCC(N(C)C)c3ccccc32)cc1 (stereo not given) [mozavaptan] | 97% | 99.8% | 88.8% | 76.6% | 70.2% | 94.9% | 109% | 95.6% | 105% | 64.9% | 98.2% | 99.5% | 93.3% | 99.5% | 44.3% | 98.1% | 102% | 94.5% | 98% | 48.8% | 100% | 103% | 98.3% | 98.4% | 51.6% |  | 3.1 µM | 2.87 µM | 4.7 | 1.4 | 3.1 | 3 | 2.7 |  | 
12 | CCCCCCCC/C=C/C(=O)O [trans-2-undecenoic-acid] | 109% | 105% | 108% | 93.5% | 98.9% | 104% | 95.1% | 96.4% | 104% | 108% | 106% | 104% | 101% | 105% | 95.8% | 101% | 97% | 102% | 100% | 99.5% |  |  |  |  |  | > 10 µM | > 10 µM | > 10 µM | 0 | 0 | 0 | 0 |  | > 10 µM | 
13 | COCCOc1cnc2ccn([C@H](C)c3nnc4c(F)cc(-c5cnn(C)c5)cn34)c(=O)c2c1 [AMG-337] | 104% | 103% | 92.9% | 101% | 97.2% | 101% | 89% | 98.4% | 114% | 95.2% | 100% | 102% | 99.2% | 91.5% | 93.5% | 93% | 99.1% | 102% | 98% | 100% |  |  |  |  |  | > 10 µM | > 10 µM | > 10 µM | 0 | 0 | 0 | 0 |  | > 10 µM | 
